Data from US20090105149A1, “Compounds comprising lpa” (ENKAM PHARMACEUTICALS A/S, priority 2003, published 2009).

Columns and labels:
[1] = system: hippocampal neurons; test: FM 1-43 destaining (presynaptic vesicle turnover) in hippocampal neurons; format: cell-based, rat
Procedure: The values were compared using an unpaired t-test. *p=0.04 (1 h) and **p=0.0032 (48 h). FGLcontrol is a control peptide consisting the sequence […] (SEQ ID NO: 147).
The effects of FGLd on vesicle turnover was estimated in primary cultures of hippocampal neurons from embryonic rats (E19). The cultures were prepared as above. Following 13-16 days in vitro, FGLd was added to the cultures and incubated for 1, 24 or 48 hours. After 48 hours of incubation, the FGFR-inhibitor (SU 5402) was added simultaneously with FGLd to some of the cultures.
After treatment with FGLd the neurons were labeled with the fluorescent membrane probe FM 1-43 as described by Kiryushko et al (2003) J Biol. Chem. 278:12325-34. The rate of FM 1-43 release (destaining of cells) evoked by depolarisation with 90 mM potassium was then evaluated by a time-lapse image acquisition using the Radiance 2000 scanning system and a Nikon eclipse TE200 confocal microscopy.

[2] = system: rat pups; test: Negative Geotaxis Reflex in rat pups; format: in vivo; conditions: PND 6; intranasal 2.6 μg per pup at PND 1, 2, 3
Procedure: The number of litters of each treatment group was six. The results were analysed using one-way ANOVA (FPND6=5.14; PPND6=0.008). […] FGLcontrol as above.
Sensory Motor Control Development study.

[3] = system: rats treated with (25-35) β-amyloid fragment; test: Open Field test, (25-35) β-amyloid fragment rat model; format: in vivo; conditions: day 14; for time spent exploring holes / time spent rearing: sub-occipital, days 7, 10, 13
Procedure: The peptide was applied sub-occipitally at days 7, 10, and 13 after the (25-35) β-amyloid fragment induced neurotoxicity. […] The number of animals per group varied from 9 to 11. ‘A-β’ and ‘V’ are the abbreviations of the (25-35) β-amyloid fragment and vehicle, respectively. The results were analysed using unpaired t-test and significance of results was contingent on achieving a p-value of less than 0.05 (*p<0.05, **p<0.01), when compared with the first measurement period (1-3 min.).
The present study employed a rat model, in which neurotoxicity and cognitive impairment were induced by the (25-35) β-amyloid peptide fragment (see Maurice T., et al. (1996) (Brain Res. 706:181-93) and Delobette S., et al. (1997) Eur J Pharmacol. 319:1-4). Short-term memory deficit induced by the (25-35) β-amyloid peptide fragment in rat is of special importance to study, as it resembles one of the clinical manifestations of Alzheimer's disease. Short-term memory deficit in rats was evaluated using three different behavioural tests: the Social Recognition (Kogan et al, (2000) Hippocampus 10:47-56), Open Field (Cerbone and Sadile, (1994) Neurosci Biobehav Rev. 18:497-518; Vianna et al, (2000) Learn Mem. 7:333-40) and Y-maze (Clayton & Williams, (2000) Neurobiol Learn Mem. 74:135-45) tests. In addition, neuropathological investigations were performed on brain tissue collected at the time of sacrifice. The FGL peptide was administered either sub-occipitally or intranasally.
(§1) Behaviour of animals was evaluated using the Social Recognition test, the Open Field test or the Light-dark Discriminating γ-maze. On day 28-30 or day 51 after i.c.v. administration of the (25-35) β-amyloid fragment, the animals were sacrificed, and in selected studies, the brain tissue was collected, histological sections were immunostained with A-β specific antibodies and the amyloid-burden was calculated as a percentage of the A-βpositive area. In addition, the number of neurons in selected areas of brain-sections was calculated using a stereological approach.

[4] = system: Erk1/2; test: PACE assay, phosphorylation of Erk1/2 in CGN; format: cell-based, rat
Procedure: The total number of neurons was estimated using crystal violet staining. Results from at least three independent experiments are expressed as percentage ±SEM with untreated cultures set at 100%. *p<0.05 and **p<0.01 when compared to the controls.
Detection of phosphorylated Erk1/2 and Akt relative to the total number of CGN is carried out according to Versteeg et al. (2000) FEBS Lett. 465:69-73. For the experiments CGN were plated at a density of 290,000 cells/cm^2 in poly-L-lysine coated 96-well microtiter plates. […] 24 hours after plating, Ara-C was added to the cultures as described above. After 72 hours of incubation, half of the medium was replaced with Neurobasal-A medium containing the peptide to be tested. For the Erk1/2 phosphorylation assay, the cultures were further incubated for 0-90 minutes, centrifuged at 70 g for 8 minutes, fixed with 4% (v/v) formaldehyde and immunostained using primary phospho-p42-44 rabbit antibodies and peroxidase-conjugated anti-rabbit secondary antibodies. For the detection of phosphorylated Akt, the cultures were further incubated for 10 or 30 minutes, centrifuged at 70 g for 8 minutes, fixed with 4% (v/v) formaldehyde and immunostained using polyclonal antibodies against Akt phosphorylated at Ser473 and peroxidase-conjugated secondary antibodies. […]

[5] = system: rats treated with (25-35) β-amyloid fragment; test: Neuronal density / cell death in brain sections, (25-35) β-amyloid fragment rat model; format: in vivo; conditions: days 7, 10, 13
Procedure: The effect of 5.0 μg FGL per administration per rat, administered sub-occipitally on days 7, 10 and 13 after (25-35) β-amyloid (A-β) fragment-induced toxicity, on neuronal cell death in the CA3 zone of the rat hippocampus. The number of animals in the groups varied from 4 to 8.
(§2) The number of animals in the groups varied from 4 to 8.
as §2, §1

[6] = system: rats; test: Open Field test in normal rats; format: in vivo, rat; conditions: additional experiments

## FGLd: MAP-type dendrimer of FGL; dendrimeric tetramer of the FGL peptide (EVYVVAENQQGKSKA)
[1]; 5 μg/ml for any time period
  rate of FM 1-43 unloading: Neither treatment with 5 μg/ml FGLd for any time period, nor the treatment with 20 μg/ml for 24 hours had any effect
[1]; 20 μg/ml for 1 h, control 0.008
  rate of FM 1-43 destaining: 0.016 s⁻¹
[1]; 20 μg/ml for 24 h
  rate of FM 1-43 destaining: did not result in a significant effect
[1]; 20 μg/ml for 48 h, control 0.013
  rate of FM 1-43 destaining: 0.028 s⁻¹
[2]
  Negative Geotaxis Reflex test, significance vs control and FGLcontrol groups: statistically significant effects
[3]
  locomotion activity: unaffected
[3]; first measurement period
  time spent exploring holes: 3.3 s
  time spent rearing: 7.0 s
[3]; last measurement period
  time spent exploring holes: 0.1 s
  time spent rearing: 0.7 s
[4]; 5 μg/ml
  phosphorylation of Erk1/2: unable to induce phosphorylation of Erk1/2
[4]; 10 μg/ml, from 10 to at least 90 minutes, control cultures = 100%
  phosphorylation of Erk1/2: 115-120%
[5]; Study 1, sub-occipital
  neuro-histopathology evaluation of the CA3 area of hippocampus: no significant effect
[5]; Study 2, sub-occipital 5 μg, β-amyloid only 15
  density of neurons in the CA3 zone of the hippocampus: 22 neurons/mcm^2×10^−4
[6]
  emotional or locomotor behaviour: did not influence emotional or locomotor behaviour
